According to patent US6627651B1, “Cyclic compounds and uses thereof” (Takeda Chemical Industries, Ltd., priority 1999, dated 2003):

Assays:
human CCR5 = molecular target: T1, human CCR5 (Homo sapiens, UniProt P51681); experiment: CCR5-binding inhibition: [125I]-RANTES binding to CHO/CCR5 cells; conditions: test compound 1 μM; ligand [125I]-RANTES 100 pM; CHO/CCR5 strains; room temperature, 30 minutes
T1 construct: expressed in transfected cells
Description: After CHO-K1 cells, which were grown in a 750-ml, tissue culture flask (Beckton, Dickinson and Company) using Ham F12 medium (Nihon Pharmaceutical Co., Ltd.) containing 10% fetal calf serum (Life Technologies Oriental, Inc.), were removed from the flask with 0.5/L trypsin-0.2 g/L EDTA (Life Technologies Oriental, Inc.), the cells were washed with PBS (Life Technologies Oriental, Inc.), were centrifuged (1000 rpm, 5 minutes) and were suspended in PBS. Next, DNA was introduced into the cells by the use of Gene Pulser (Bio-Rad Laboratories Inc.) under the following conditions. In other words, 8×10^6 cells and 10 μg human CCR5 expression plasmid pCKR5 were added into a cuvette with a 0.4-cm gap, and the cells were electroporated at 0.25 kV under a capacitance of 960 μF. Subsequently, the cells were transferred to Ham F12 medium containing 10% fetal calf serum, and were cultivated for 24 hours. The cells were then removed from the flask again for centrifugation, were then suspended in Ham F12 medium containing 10% fetal serum albumin containing geneticin (Life Technologies Oriental, Inc.) at a final concentration of 500 μg/ml, were diluted to 10^4 cells/ml and were seeded into 96-well plates (Beckton, Dickinson and Company) to obtain geneticin-resistant strains.
Next, after the thus-obtained geneticin-resistant strains were cultivated in a 96-well plate (Beckton, Dickinson and Company), cells expressing CCR5 were selected from the resistant strains. In other words, the binding reaction was carried out at room temperature for 40 minutes in an assay buffer (Ham F12 medium containing 0.5% BSA and 20 mM HEPES (Wako Pure Chemical Industries, Ltd.)) that is supplemented with 200 pM [^125I]-RANTES (Amersham plc) as a ligand, and the cells were washed with ice-cold PBS, were then stirred after adding 50 μl/well of 1M NaOH and were counted for radioactivity in a γ-counter to select CHO/CCR5 strains, the cells to which the ligand was specifically bound.
CHO/CCR5 strains were seeded into 96-well microplates at a density of 5×10^4 cells/well, and were cultivated for 24 hours. After the culture fluid was removed by suction, the assay buffer containing a test compound (1 μM) was added to each well, and a ligand [^125I]-RANTES (Amersham Corporation) was added to a final concentration of 100 pM, after which the reaction was carried out at room temperature for 30 minutes. Next, after the assay buffer was removed by suction, the cells were washed twice with ice-cold PBS. Subsequently, 200 μl of MicroScint-20 (Packard Industry Company, Inc.) was added to each well, which was counted for radioactivity in a Top Count (Packard Industry Company, Inc.).
Percentages of CCR5-binding inhibition by test compounds were determined according to the method described above.

T1 sequence (P51681 whole entry): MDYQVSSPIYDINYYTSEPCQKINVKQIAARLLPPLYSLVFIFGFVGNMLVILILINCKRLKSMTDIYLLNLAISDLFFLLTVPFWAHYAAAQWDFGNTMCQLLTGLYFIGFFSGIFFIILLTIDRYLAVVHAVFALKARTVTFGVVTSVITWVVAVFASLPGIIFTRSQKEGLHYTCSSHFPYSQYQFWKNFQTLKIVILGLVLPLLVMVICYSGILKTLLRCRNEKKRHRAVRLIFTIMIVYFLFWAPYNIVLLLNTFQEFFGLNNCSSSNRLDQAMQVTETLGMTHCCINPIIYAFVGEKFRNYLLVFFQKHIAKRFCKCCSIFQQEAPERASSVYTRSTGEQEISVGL

Inhibition of binding (%) (human CCR5)	inhibition at 1 µM (human CCR5) [%]	melting point	SMILES
86			CCCOc1ccc(CCOc2ccc3c(c2)C=C(C(=O)Nc2ccc(CN(C)C4CCOCC4)cc2)CCS3(=O)=O)cc1 [Compound 19, N-[4-[N-methyl-N-(tetrahydropyran-4-yl)aminomethyl]phenyl]-7-[4-(propoxyphenethyl)oxy]-1,1-dioxo-2,3-dihydro-1-benzothiepine-4-carboxamide]
94			CCCOc1cccc(COc2ccc3c(c2)C=C(C(=O)Nc2ccc(CN(C)C4CCOCC4)cc2)CCS3(=O)=O)c1 [Compound 20]
	98	190 to 192 °C	CCCOc1ccccc1COc1ccc2c(c1)C=C(C(=O)Nc1ccc(CN(C)C3CCOCC3)cc1)CCS2(=O)=O [Compound 21, N-[4-[N-methyl-N-(tetrahydropyran-4-yl)aminomethyl]phenyl]-7-[(2-propoxybenzyl)oxy]-1,1-dioxo-2,3-dihydro-1-benzothiepine-4-carboxamide]
	74	199 to 204 °C (dec.)	Cc1ccc(-c2ccc3c(c2)C=C(C(=O)NC2CCN(C4CCOCC4)CC2)CCO3)cc1 [Compound 56, N-(1-(tetrahydropyran-4-yl)piperidin-4-yl)-7-(4-methylphenyl)-2,3-dihydro-1-benzooxepine-4-carboxamide]
76			Cc1ccc(-c2ccc3c(c2)C=C(C(=O)Nc2ccc(CC4=NCCN4)cc2)CCO3)cc1 [Compound 94]
89			CCCOc1ccc(COc2ccc3c(c2)C=C(C(=O)Nc2ccc(CN(C)C4CCOCC4)cc2)CCS3(=O)=O)cc1 [Compound 100]
	86	175 to 176 °C	CCCOCCOc1ccc(COc2ccc3c(c2)C=C(C(=O)Nc2ccc(CN(C)C4CCOCC4)cc2)CCS3(=O)=O)cc1 [Compound 108, N-[4-[[N-methyl-N-(tetrahydropyran-4-yl)amino]methyl]phenyl]-7-[[4-(2-propoxyethoxy)benzyl]oxy]-1,1-dioxo-2,3-dihydro-1-benzothiepine-4-carboxamide]
	82	178 to 181 °C	CCCOc1ccc(CCCOc2ccc3c(c2)C=C(C(=O)Nc2ccc(CN(C)C4CCOCC4)cc2)CCS3(=O)=O)cc1 [Compound 121, N-[4-[[N-methyl-N-(tetrahydropyran-4-yl)amino]methyl]phenyl]-7-[3-(4-propoxyphenyl)propoxy]-1,1-dioxo-2,3-dihydro-1-benzothiepine-4-carboxamide]
